Source: publication PMC6522510 (Nature Communications, 2019)

Key:
Design in all cases: species or system AML cell lines (8); Primary HTS, single concentration about 10 uM, Cell Titer Glo viability; log10 luminescence, per cent inhibition relative to cycloheximide control
Conditions in all cases: 72 h, relative to cycloheximide control, log10 luminescence; inhibitor
[1] = system: CHRF288-11
[2] = system: CMK
[3] = system: CMS
[4] = system: M07e
[5] = system: ML-2
[6] = system: MOLM-13
[7] = system: MV4-11
[8] = system: U937

Structure (SMILES) | CHRF288-11 %inh [1] [%] | CMK %inh [2] [%] | CMS %inh [3] [%] | M07e %inh [4] [%] | ML-2 %inh [5] [%] | MOLM-13 %inh [6] [%] | MV4-11 %inh [7] [%] | U937 %inh [8] [%]
Cn1cc(C2=C(c3cccc(Br)c3)C(=O)NC2=O)c2ccccc21 [SJ000580965-1] | 0.5807 | 8.568 | 0.1878 | 3.983 | -0.4526 | 4.067 | 8.448 | 10.11
Cc1c(C2=C(c3cn(C)c4ccccc34)C(=O)NC2=O)c2ccccc2n1C [SJ000580966-1] | 4.622 | 42.24 | -2.63 | 4.858 | 15.84 | 2.992 | -0.1129 | 14.47
Cn1cc(C2=C(c3cn(C)c4ccc(N)cc34)C(=O)NC2=O)c2ccccc21 [SJ000580967-1] | 11.3 | 43.44 | 2.341 | 2.999 | 0.6002 | 8.368 | 0.6883 | 7.089
C[C@H](O)CNc1cc(-c2[nH]c3cccnc3c2-c2ccc(F)cc2)ccn1 [SJ000580968-1] | -0.7944 | 8.696 | -1.462 | -0.9304 | -2.119 | 2.412 | 1.217 | 2.723
O=C1NC(=NCCc2ccc(Cl)cc2)S/C1=C\c1ccc2ncccc2c1 [SJ000580969-1] | 2.273 | 0.9453 | 0.8596 | -1.208 | -0.5014 | 1.832 | 1.31 | -0.9947
Cn1cc(C2=C(c3cn(C)c4cc(C(=O)O)ccc34)C(=O)NC2=O)c2ccccc21 [SJ000580970-1] | 12.22 | 35.03 | -3.422 | -3.399 | -3.521 | 4.437 | 2.908 | -0.7361
Cn1c(=O)c(Oc2ccc(F)cc2F)cc2cnc(NC(C)(C)CO)nc21 [SJ000580971-1] | 4.115 | 4.061 | -1.762 | 0.06396 | -1.151 | 3.693 | 3.201 | 1.382
Cn1c(=O)c(Oc2ccc(F)cc2)cc2cnc(NC3CCOCC3)nc21 [SJ000580972-1] | 0.05441 | 4.681 | 3.35 | 1.712 | -0.6256 | -0.3408 | -1.036 | 2.684
Nc1c(C(=O)c2cccc(C#CCN3CCOCC3)c2)cnn1-c1ccc(F)cc1 [SJ000580973-1] | 3.718 | 37.5 | 0.1973 | 5.913 | 0.4746 | 2.598 | 1.084 | 6.28
O=C1NC(=NCCc2ccc(Br)cc2)S/C1=C\c1ccc2ncccc2c1 [SJ000580974-1] | -1.536 | 0.3303 | -2.579 | -0.6831 | -0.9884 | 0.9588 | 2.317 | -2.102
CS(=O)(=O)N1CCC(n2c(=O)c(Oc3ccc(F)cc3F)cc3cnc(NC4CCOCC4)nc32)CC1 [SJ000580975-1] | -0.8918 | 5.472 | -1.205 | 0.9741 | -0.9846 | 0.4331 | 2.449 | 0.9443
COc1ccc(C2=C(c3cn(C)c4ccccc34)C(=O)NC2=O)cc1 [SJ000580976-1] | 0.9018 | 12.52 | -2.297 | 2.491 | -0.4189 | 0.836 | 1.945 | 2.922
Cn1cc(C2=C(c3cn(-c4ccccc4)c4ccccc34)C(=O)NC2=O)c2ccccc21 [SJ000580977-1] | 2.78 | 6.892 | 0.9336 | -0.4981 | -1.344 | 2.403 | 3.843 | 0.1058
Cn1cc(C2=C(c3cn(C)c4ccccc34)C(=O)NC2=O)c2ccccc21 [SJ000580978-1] | -0.8174 | 24.68 | 40.67 | 52.37 | 13.32 | 3.271 | 62.31 | 66.13
Cn1cc(C2=C(c3ccccc3C(F)(F)F)C(=O)NC2=O)c2ccccc21 [SJ000580979-1] | 19.74 | 21.16 | 5.043 | -0.07648 | 0.8133 | 4.778 | 10.38 | 1.904
CCCn1cc(C2=C(c3cn(C)c4ccccc34)C(=O)NC2=O)c2ccccc21 [SJ000580980-1] | 31.26 | 44.58 | 13.73 | 35.81 | 30.17 | 64.41 | 13.35 | 35.21
Cn1cc(C2=C(c3cccc(Cl)c3)C(=O)NC2=O)c2ccccc21 [SJ000580981-1] | 3.619 | -0.373 | -3.182 | 1.057 | -1.322 | -1.961 | -5.929 | 1.717
O=C1NC(=NCCc2ccccc2F)S/C1=C\c1ccc2ncccc2c1 [SJ000580983-1] | 13.58 | 41.89 | 2.155 | 0.4729 | 8.671 | 4.839 | -0.6215 | 4.047
COc1ccc(O)c(C(=O)c2ccc(C(=O)N[C@@H]3CCCNC[C@H]3NC(=O)c3ccncc3)cc2)c1F [SJ000580985-1] | 19.87 | 12.77 | 1.516 | 4.451 | 46.48 | 32.45 | 52.11 | 23.19
Cn1cc(C2=C(Nc3ccccc3)C(=O)NC2=O)c2ccccc21 [SJ000580986-1] | -2.441 | -3.795 | 2.457 | -1.248 | 0.1627 | 1.455 | -0.9881 | -0.4269
N#Cc1ccc(C(=O)c2cnn(-c3ccc(F)cc3)c2N)cc1 [SJ000580987-1] | -3.381 | -2.255 | 0.4553 | -1.432 | -0.9573 | -1.146 | -4.232 | 0.0125
Cn1c(=O)c(Oc2cccc(F)c2)cc2cnc(NC3CCOCC3)nc21 [SJ000580988-1] | 0.6759 | 1.711 | 1.491 | 0.7165 | -0.3057 | 93.55 | 0.1701 | 1.883
CC(=O)N1CCC(Nc2ncc3cc(Oc4ccc(F)cc4F)c(=O)n(C)c3n2)CC1 [SJ000580990-1] | 0.9354 | 3.354 | 0.4119 | 1.958 | -1.665 | -1.534 | 0.8846 | 4.841
Fc1ccc(-c2c(-c3ccncc3)[nH]c3nccnc23)cc1 [SJ000580991-1] | 0.1739 | 11.62 | 2.205 | -1.27 | -4.337 | -0.4618 | -5.653 | 0.7484
